Source: patent US20210283198A1, “METHOD FOR TREATING AND/OR PREVENTING COCCIDIOSIS” (priority 2020, published 2021)
Marks after values point to notes of the source that are not given here. *1 amine or outer side, *2 acyl side, *3 side chain or, on linkers, in order; H or OH if unused. Where a SMILES comes first, the peptide text is derived from it. Bridges are numbered along the chain shown (N, C = ends). [ ]: non-standard residue; d: D form. X1 = CC(C)CCCCCCCCC[C@H](CC(=O)[*:1])O[*:2]

Tests used:
P. falciparum = details: literature (Chakrabarty et al. 2008); cited from earlier work
[1] = tested on: Eimeria tenella merozoites; experiment: In vitro death of merozoite (propidium iodide staining, confocal microscopy); type: cell-based; details: 100 ppm; 10^4/mL merozoites; 1 h at 37° C.; mean ± SD (n = 3)
[2] = tested on: Eimeria tenella sporozoites; experiment: Scanning electron microscopy of sporozoite morphology; type: cell-based; details: 5, 10, 20 ppm; 1 h at 37° C.; 10^6 sporozoites/mL; compared with untreated group

Structure (SMILES): CC(C)CCCCCCCCC[C@@H]1CC(=O)N[C@@H](CCC(=O)O)C(=O)N[C@@H](CC(C)C)C(=O)N[C@H](CC(C)C)C(=O)N[C@@H](C(C)C)C(=O)N[C@@H](CC(=O)O)C(=O)N[C@H](CC(C)C)C(=O)N[C@@H](CC(C)C)C(=O)O1 [surfactin standard, surfactin] (EL[dL]VD[dL]L; linker N-C via X1)
- Intraerythrocytic growth of P. falciparum (P. falciparum): potent inhibitor of intraerythrocytic growth
- Death of merozoite (%) [1]: 97 ± 0.01^b %
- Morphology of Eimeria tenella sporozoites (scanning electron microscopy) [2]: disrupt the morphology
